Laboratory results taken from paper PMC5666756, “Fascaplysin Exerts Anti-Cancer Effects through the Downregulation of Survivin and HIF-1α and Inhibition of VEGFR2 and TRKA” (International Journal of Molecular Sciences, 2017).

Experiments:
Format in all cases: biochemical
VEGFR3 = molecular target: T1, VEGFR3 (Homo sapiens, UniProt P35916); experiment: high-throughput kinase screening assay (IC50, Figure S4)
T1 construct: gene FLT4

[1] = molecular target: T2, TRKA (tropomyosin-related kinase A) (Homo sapiens, UniProt P04629); experiment: radiometric kinase assay ([γ-33P]ATP), IC50 at several ATP concentrations, Lineweaver-Burk
T2 construct: gene NTRK1; recombinant human cytoplasmic domain (aa 441–796), C-terminal His-tagged

[2] = molecular target: T3, VEGFR2 (vascular endothelial growth factor receptor 2) (Homo sapiens, UniProt P35968); experiment: as above
T3 construct: gene KDR
Text: radiometric kinase assay ([γ-33P]ATP), IC50 at several ATP concentrations, Lineweaver-Burk on VEGFR2 (vascular endothelial growth factor receptor 2) | fascaplysin is noncompetitive with respect to ATP against TRKA and VEGFR2

Measured: IC50

T3 sequence (P35968 789-1356): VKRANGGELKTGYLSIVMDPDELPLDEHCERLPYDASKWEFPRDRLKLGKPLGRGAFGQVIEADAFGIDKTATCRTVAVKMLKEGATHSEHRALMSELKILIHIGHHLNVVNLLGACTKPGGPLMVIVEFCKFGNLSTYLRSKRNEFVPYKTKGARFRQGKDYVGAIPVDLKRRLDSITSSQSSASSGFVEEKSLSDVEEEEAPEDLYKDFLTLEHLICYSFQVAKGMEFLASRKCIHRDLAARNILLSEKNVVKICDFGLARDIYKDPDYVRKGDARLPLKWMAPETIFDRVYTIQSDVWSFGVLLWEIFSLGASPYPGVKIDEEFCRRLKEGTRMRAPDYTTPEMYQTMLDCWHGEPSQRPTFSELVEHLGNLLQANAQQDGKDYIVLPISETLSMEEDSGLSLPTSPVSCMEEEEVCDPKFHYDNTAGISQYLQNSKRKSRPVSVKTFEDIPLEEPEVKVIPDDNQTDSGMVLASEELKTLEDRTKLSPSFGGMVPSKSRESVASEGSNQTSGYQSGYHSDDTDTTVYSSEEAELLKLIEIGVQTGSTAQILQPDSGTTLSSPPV
T1 sequence (P35916 25-1363): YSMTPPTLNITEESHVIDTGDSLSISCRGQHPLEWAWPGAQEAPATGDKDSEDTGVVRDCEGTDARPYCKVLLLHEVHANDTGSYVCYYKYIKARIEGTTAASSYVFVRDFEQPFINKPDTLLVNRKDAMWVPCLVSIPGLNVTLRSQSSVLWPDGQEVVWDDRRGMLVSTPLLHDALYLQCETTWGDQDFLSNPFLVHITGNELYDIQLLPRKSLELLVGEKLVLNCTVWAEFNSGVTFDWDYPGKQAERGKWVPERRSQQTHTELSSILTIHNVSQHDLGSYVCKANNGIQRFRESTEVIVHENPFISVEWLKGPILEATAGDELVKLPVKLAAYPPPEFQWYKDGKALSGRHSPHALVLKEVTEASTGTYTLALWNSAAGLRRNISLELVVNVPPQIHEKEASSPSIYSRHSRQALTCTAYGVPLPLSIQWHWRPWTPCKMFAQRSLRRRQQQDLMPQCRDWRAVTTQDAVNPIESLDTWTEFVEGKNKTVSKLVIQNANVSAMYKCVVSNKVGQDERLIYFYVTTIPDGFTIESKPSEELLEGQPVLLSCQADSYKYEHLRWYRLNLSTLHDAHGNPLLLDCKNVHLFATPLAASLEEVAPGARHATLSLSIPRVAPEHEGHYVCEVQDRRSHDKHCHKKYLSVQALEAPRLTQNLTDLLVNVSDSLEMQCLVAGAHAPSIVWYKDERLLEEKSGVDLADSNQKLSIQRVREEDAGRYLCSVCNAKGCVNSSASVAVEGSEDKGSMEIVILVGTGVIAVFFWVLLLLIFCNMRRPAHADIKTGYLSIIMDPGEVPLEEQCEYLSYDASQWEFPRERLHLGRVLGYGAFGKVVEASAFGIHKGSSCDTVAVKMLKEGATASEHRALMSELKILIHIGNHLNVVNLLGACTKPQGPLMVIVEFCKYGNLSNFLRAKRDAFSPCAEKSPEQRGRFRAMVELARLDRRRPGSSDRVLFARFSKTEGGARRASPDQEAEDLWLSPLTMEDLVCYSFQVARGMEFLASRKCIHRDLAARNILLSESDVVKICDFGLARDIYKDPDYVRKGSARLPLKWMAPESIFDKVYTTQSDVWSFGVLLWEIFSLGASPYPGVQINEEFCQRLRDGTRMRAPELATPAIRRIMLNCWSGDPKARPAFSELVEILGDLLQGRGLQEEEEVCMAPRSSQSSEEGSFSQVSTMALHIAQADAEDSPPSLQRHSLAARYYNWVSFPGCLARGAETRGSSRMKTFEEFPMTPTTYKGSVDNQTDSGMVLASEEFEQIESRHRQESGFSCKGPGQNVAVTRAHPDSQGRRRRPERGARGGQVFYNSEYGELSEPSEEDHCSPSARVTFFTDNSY
T2 sequence (P04629 441-796): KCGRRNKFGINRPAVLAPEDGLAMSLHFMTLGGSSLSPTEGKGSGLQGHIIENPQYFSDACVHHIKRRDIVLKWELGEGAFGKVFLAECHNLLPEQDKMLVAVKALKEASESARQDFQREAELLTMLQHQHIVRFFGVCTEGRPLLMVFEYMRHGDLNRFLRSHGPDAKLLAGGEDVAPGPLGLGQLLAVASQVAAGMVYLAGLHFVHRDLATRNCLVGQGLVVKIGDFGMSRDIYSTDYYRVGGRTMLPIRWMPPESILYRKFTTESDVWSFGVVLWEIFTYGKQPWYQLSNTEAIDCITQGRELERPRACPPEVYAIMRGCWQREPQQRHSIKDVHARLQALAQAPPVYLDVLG

O=C1c2ccccc2-[n+]2ccc3c([nH]c4ccccc43)c21 [Fascaplysin]
2000 to 3000 nM: all assays above
